One series addresses DNA-PK (Homo sapiens (Human), UniProt P78527). Put plainly: DNA-PK assay (biochemical), flashplate 33P-ATP kinase assay. As to the method: A) DNA-PK Assay (Biochemical)
The kinase assay was carried out in streptavidin-coated […] microtitre flashplates. […] The reaction was stopped using 50 μl/well of 200 mM EDTA. After incubation for a further 30 min at room temperature, the liquid was removed. Each well was washed three times with 100 μl of 0.9% saline solution. A nonspecific reaction (blank value) was determined using 10 μM of an innate kinase inhibitor. The radioactivity measurement was carried out using a TopCount. IC50 values were calculated in RS1.

Series [1] addresses DNA-PK phosphorylation at serine 2056 (Homo sapiens (Human), UniProt P78527). Put plainly: DNA-PK phosphorylation at serine 2056 (cellular), bleomycin-treated HCT116 cells, ELISA. The note with it: read-out: IC50 pDNA-PK. It counts as cell-based. As to the method:
HCT116 cells were cultivated at 37° C. and 10% CO2 in MEM alpha medium with 10% of foetal calf serum and 2 mM glutamine. The cells were detached from the base of the culture vessels with the aid of trypsin/EDTA, centrifuged off in centrifuge tubes, taken up in fresh medium, and the cell density was determined. 100,000 cells were sown in 1 ml of culture medium per cavity of a 24-well cell culture plate and cultivated overnight. Next day, 10 μM bleomycin (DNA intercalator and inductor of DNA double-strand breaks) and test substances in fresh culture medium were added to the cells, and these were cultivated for a further six hours. […] The 96-well ELISA plates were subsequently treated with a detection antibody (Abcam ab79444: total DNA-PK) and a streptavidin-HRP conjugate. The development of the enzymatic reaction was carried out with the aid of a chemiluminescent reagent, the chemiluminescence was measured with the aid of a Mithras LB940. The signals with the phospho-DNA-PK-specific antibody were standardised to the signal with the antibody against the total protein DNA-PKc. […] The DMSO control was used as blank.
A general note: In an ELISA, binding on a coated surface is turned into a signal by an enzyme label.

For another series, the target named is Kv11.1 (hERG) (Homo sapiens (Human), UniProt Q12809). Description: Kv11.1 (hERG) ion channel activity (patch clamp assay), HEK293 cells transfected with hERG gene. On the technique in general: Block of hERG is tested as a sign of cardiac risk.
[2] abbreviates: cellular DNA-PK phosphorylation at serine 2056, HCT116.
[3] abbreviates: Ki [Kv1.11 hERG], hERG patch clamp assay (cells without asterisk).
The mark [4] stands for this setting: read-out: Ki [Kv1.11 hERG], hERG patch clamp assay (cells without asterisk).
Where [5] appears, read: cellular, HCT116 cells, 10 μM bleomycin, six hours.
Setting [6] is: read-out: Ki [Kv1.11 hERG], patch clamp, HEK293 transfected with hERG gene.
Where [7] appears, read: human, HEK293 cells stably transfected with the hERG gene, Ki [Kv1.11 hERG], patch clamp, HEK293 transfected with hERG gene.
[8] abbreviates: Ki [Kv1.11 hERG], patch clamp, HEK293 transfected with hERG gene.

Like-named read-outs stand apart in the source and are kept apart here. Where only a bound is given, the exact number is not on record here.

Kv11.1 (hERG), sequence (Q12809 whole entry): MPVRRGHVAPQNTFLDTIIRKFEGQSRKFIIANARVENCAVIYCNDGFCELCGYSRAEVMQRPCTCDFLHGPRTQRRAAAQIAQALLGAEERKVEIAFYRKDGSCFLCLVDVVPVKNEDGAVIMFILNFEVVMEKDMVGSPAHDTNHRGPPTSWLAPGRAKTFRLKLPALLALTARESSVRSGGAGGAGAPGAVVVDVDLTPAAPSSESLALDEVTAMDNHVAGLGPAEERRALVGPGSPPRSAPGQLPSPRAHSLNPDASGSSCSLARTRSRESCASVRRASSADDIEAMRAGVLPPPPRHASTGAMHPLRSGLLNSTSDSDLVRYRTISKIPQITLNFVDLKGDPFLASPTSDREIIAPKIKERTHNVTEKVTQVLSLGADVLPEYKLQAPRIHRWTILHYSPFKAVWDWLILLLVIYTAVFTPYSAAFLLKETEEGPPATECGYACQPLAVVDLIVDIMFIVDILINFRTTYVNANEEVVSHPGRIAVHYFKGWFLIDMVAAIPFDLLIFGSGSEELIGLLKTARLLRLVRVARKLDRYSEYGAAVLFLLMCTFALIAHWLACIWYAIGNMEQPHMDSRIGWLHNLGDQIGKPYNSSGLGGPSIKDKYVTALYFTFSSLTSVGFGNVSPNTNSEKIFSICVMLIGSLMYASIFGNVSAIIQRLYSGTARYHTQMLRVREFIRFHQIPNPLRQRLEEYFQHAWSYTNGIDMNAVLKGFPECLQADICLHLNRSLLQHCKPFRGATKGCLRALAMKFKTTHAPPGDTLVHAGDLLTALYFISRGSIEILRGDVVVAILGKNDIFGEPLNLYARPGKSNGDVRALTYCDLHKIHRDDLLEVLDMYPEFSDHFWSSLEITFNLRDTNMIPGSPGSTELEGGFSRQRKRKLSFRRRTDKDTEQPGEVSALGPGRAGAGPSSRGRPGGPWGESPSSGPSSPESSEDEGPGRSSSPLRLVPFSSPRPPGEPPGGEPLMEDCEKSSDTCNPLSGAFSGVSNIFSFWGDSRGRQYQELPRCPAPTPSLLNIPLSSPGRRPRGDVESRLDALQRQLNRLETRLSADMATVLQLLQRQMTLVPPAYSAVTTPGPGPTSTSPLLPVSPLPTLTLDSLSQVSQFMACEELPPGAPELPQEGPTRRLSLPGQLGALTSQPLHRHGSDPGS

A word on the IC50: it is the concentration at which inhibition is half-maximal. One may read the Ki as the equilibrium dissociation constant of an inhibitor or competing ligand from its target. In the case of `OC(c1cc(-c2ncnc3cc(N4CCOCC4)ccc23)c(F)cc1Cl)c1ncnc2ccoc12` (stereo not drawn) [Example 452, [2-Chloro-4-fluoro-5-(7-morpholin-4-yl-quinazolin-4-yl)-phenyl]furo[3,2-d}-pyrimidin-4-yl-methanol], the concentration for half-maximal inhibition (IC50) on DNA-PK (biochemical DNA-PK assay) is below 3 nM; in series [1] (setting [2]), below 0.5 µM. On Kv11.1 (hERG) (setting [3]), the Ki was in the range of 10 to 15 µM.

With `NC(=O)C(c1ccc(F)c(-c2ncnc3cc(N4CCOCC4)ccc23)c1)c1nnc(Cl)c2sccc12` (stereo not drawn) [Example 291, 2-(7-Chlorothieno-[2,3-d}pyridazin-4-yl)-2-[4-fluoro-3-(7-morpholin-4-yl-quinazolin-4-yl)-phenyl]acetamide], the IC50 is 3 to 7 nM at DNA-PK (biochemical DNA-PK assay) and 5 to 10 µM in series [1] (setting [2]). Besides, the Ki on Kv11.1 (hERG) (setting [4]) is below 10 µM.

Take `CC(C#N)Oc1ccc(C(O)c2cc(-c3ncnc4cc(N5CCOCC5)ccc34)c(F)cc2Cl)nn1` (single isomer, unassigned) [Example 104, 2-(6-{[2-Chloro-4-fluoro-5-(7-morpholin-4-yl-quinazolin-4-yl)-phenyl]hydroxy-methyl}pyridazin-3-yloxy)propionitrile]: the IC50 at DNA-PK (enzymatic, 5 μM ATP) lay within 7 to 30 nM; in series [1] (setting [5]), 0.5 to 5 µM. The Ki at Kv11.1 (hERG) (setting [6]) was in the range of 15 to 25 µM.

As to `OC(c1ccc(F)c(-c2ncnc3cc(N4CCOCC4)ccc23)c1)c1ncnc2ccsc12` (stereo not drawn) [Example 438, [4-Fluoro-3-(7-morpholin-4-yl-quinazolin-4-yl)-phenyl]thieno[3,2-d}-pyrimidin-4-yl-methanol], the IC50 against DNA-PK (biochemical DNA-PK assay) was below 3 nM; in series [1] (setting [2]) it was below 0.5 µM. Moreover, the Ki on Kv11.1 (hERG) (setting [3]) is 10 to 15 µM.

`Cc1nccnc1[C@H](O)c1cc(-c2ncnc3cc(N4CCOCC4)ccc23)c(F)cc1F` [Example 84, [2,4-Difluoro-5-(7-morpholin-4-yl-quinazolin-4-yl)-phenyl]-(3-methyl-pyrazin-2-yl)methanol]: the IC50 against DNA-PK (enzymatic, 5 μM ATP) was 3 to 7 nM; in series [1] (setting [5]), below 0.5 µM. Moreover, the Ki at Kv11.1 (hERG) (setting [7]) was in the range of 15 to 25 µM.

`COc1ccnnc1C(O)c1cc(-c2ncnc3cc(N4CCOCC4)ccc23)c(F)cc1Cl` (stereo not drawn) [Example 3, [2-Chloro-4-fluoro-5-(7-morpholin-4-yl-quinazolin-4-yl)phenyl]-(4-methoxy-pyridazin-3-yl)methanol]: the IC50 was 3 to 7 nM at DNA-PK (enzymatic, 5 μM ATP) and 0.5 to 5 µM in series [1] (setting [5]). Besides, on Kv11.1 (hERG) (setting [6]), the inhibition constant (Ki) is above 25 µM.

As to `Cc1cc(C(C(N)=O)c2cc(-c3ncnc4cc(N5CCOCC5)ccc34)c(F)cc2Cl)n(C)c(=O)c1` (stereo not drawn) [Example 334, 2-[2-Chloro-4-fluoro-5-(7-morpholin-4-yl-quinazolin-4-yl)-phenyl]-2-(1,4-dimethyl-6-oxo-1,6-dihydropyridin-2-yl)-acetamide], the IC50 at DNA-PK (biochemical DNA-PK assay) is above 30 nM; in series [1] (setting [2]), 10 to 30 µM. Moreover, the Ki at Kv11.1 (hERG) (setting [4]) was above 25 µM.

As for `COc1ccc(C(O)c2cc(-c3ncnc4cc(N5CCOCC5)cnc34)c(F)cc2Cl)nn1` (stereo not drawn) [Example 257, [2-Chloro-4-fluoro-5-(7-morpholin-4-yl-pyrido[3,2-d}-pyrimidin-4-yl)-phenyl]-(6-methoxy-pyridazin-3-yl)-methanol], the IC50 lay within 3 to 7 nM against DNA-PK (biochemical DNA-PK assay) and 0.5 to 5 µM in series [1] (setting [2]). For the same compound, on Kv11.1 (hERG) (setting [4]), the Ki was above 25 µM.

For the compound `OC(c1ccc2nccn2n1)c1cc(-c2ncnc3cc(N4CCOCC4)ccc23)c(F)cc1F` (single isomer, unassigned) [Example 20, [2,4-Difluoro-5-(7-morpholin-4-yl-quinazolin-4-yl)phenyl]-imidazo[1,2-b]pyridazin-6-ylmethanol], the IC50 against DNA-PK (enzymatic, 5 μM ATP) was 7 to 30 nM; in series [1] (setting [5]), 5 to 10 µM. At Kv11.1 (hERG) (setting [6]), the Ki is above 25 µM.

Regarding `NC(=O)C(c1cccnc1)c1ccc(F)c(-c2ncnc3cc(N4CCOCC4)ccc23)c1` (stereo not drawn) [Example 295, 2-[4-Fluoro-3-(7-morpholin-4-yl-quinazolin-4-yl)-phenyl]-2-pyridin-3-ylacetamide], the IC50 is 7 to 30 nM against DNA-PK (biochemical DNA-PK assay) and 10 to 30 µM in series [1] (setting [2]). Moreover, at Kv11.1 (hERG) (setting [4]), the Ki is above 25 µM.

With `Cn1c(C(O)c2cc(-c3ncnc4cc(N5CCOCC5)ccc34)c(F)cc2Cl)cccc1=O` (stereo not drawn) [Example 383, 6-{[2-Chloro-4-fluoro-5-(7-morpholin-4-yl-quinazolin-4-yl)-phenyl]hydroxy-methyl}-1-methyl-1H-pyridin-2-one], the IC50 is below 3 nM on DNA-PK (biochemical DNA-PK assay) and below 0.5 µM in series [1] (setting [2]). Also, the Ki at Kv11.1 (hERG) (setting [4]) was above 25 µM.

On to `OC(c1ccc(F)c(-c2ncnc3cc(N4CCOCC4)sc23)c1)c1nccnc1Cl` (single isomer, unassigned) [Example 24, (3-Chloro-pyrazin-2-yl)-[4-fluoro-3-(6-morpholin-4-yl-thieno-[3,2-d}pyrimidin-4-yl)-phenyl]methanol], for which the IC50 is below 3 nM on DNA-PK (enzymatic, 5 μM ATP) and below 0.5 µM in series [1] (setting [5]). The compound further displayed a Ki at Kv11.1 (hERG) (setting [7]) of 15 to 25 µM.

Turning to `Cc1cc(F)c(-c2ncnc3cc(N4CCOCC4)ccc23)cc1C(O)c1nccs1` (stereo not drawn) [Example 210, [4-Fluoro-2-methyl-5-(7-morpholin-4-yl-quinazolin-4-yl)-phenyl]thiazol-2-ylmethanol], the IC50 was 3 to 7 nM at DNA-PK (enzymatic, 5 μM ATP) and 0.5 to 5 µM in series [1] (setting [5]). Moreover, the Ki on Kv11.1 (hERG) (setting [6]) was above 25 µM.

In the case of `COc1cncnc1C(O)c1cc(-c2ncnc3cc(N4CCOCC4)ccc23)c(F)cc1F` (stereo not drawn) [Example 448, [2,4-Difluoro-5-(7-morpholin-4-yl-quinazolin-4-yl)-phenyl]-(5-methoxy-pyrimidin-4-yl)-methanol], the IC50 at DNA-PK (biochemical DNA-PK assay) is below 3 nM; in series [1] (setting [2]) it was 0.5 to 5 µM. The Ki at Kv11.1 (hERG) (setting [3]) lay in the range of 10 to 15 µM.

As to `OC(c1ccc(F)c(-c2ncnc3cc(N4CCOCC4)ccc23)c1)c1nc(Cl)cnc1Cl` (stereo not drawn) [Example 35, (3,6-Dichloro-pyrazin-2-yl)-[4-fluoro-3-(7-morpholin-4-yl-quinazolin-4-yl)phenyl]-methanol], the IC50 against DNA-PK (enzymatic, 5 μM ATP) was below 3 nM; in series [1] (setting [5]), below 0.5 µM. On Kv11.1 (hERG) (setting [8]), this compound registered a Ki of 10 to 15 µM.

As to `OC(c1cc(-c2ncnc3cc(N4CCOCC4)ccc23)c(F)cc1F)c1nnc2ccccn12` (stereo not drawn) [Example 379, [2,4-Difluoro-5-(7-morpholin-4-yl-quinazolin-4-yl)-phenyl]-[1,2.4]-triazolo[4,3-a]pyridin-3-ylmethanol], the IC50 against DNA-PK (biochemical DNA-PK assay) fell in the range of 3 to 7 nM; in series [1] (setting [2]) it was 0.5 to 5 µM. The Ki on Kv11.1 (hERG) (setting [4]) was above 25 µM.

In the case of `OC(c1cc(-c2ncnc3cc(N4CCOCC4)ccc23)ccc1F)c1ncnc2sccc12` (stereo not drawn) [Example 406, [2-Fluoro-5-(7-morpholin-4-yl-quinazolin-4-yl)-phenyl]thieno[2,3-d}-pyrimidin-4-yl-methanol], the IC50 against DNA-PK (biochemical DNA-PK assay) was below 3 nM; in series [1] (setting [2]) it was below 0.5 µM. In addition, at Kv11.1 (hERG) (setting [3]), the Ki was 10 to 15 µM.

As to `OCCNc1nccnc1C(O)c1ccc(F)c(-c2ncnc3cc(N4CCOCC4)ccc23)c1` (stereo not drawn) [Example 106, 2-(3-{[4-fluoro-3-(7-morpholin-4-yl-quinazolin-4-yl)-phenyl]hydroxy-methyl}pyrazin-2-yl-amino)ethanol], the IC50 was in the range of 7 to 30 nM against DNA-PK (enzymatic, 5 μM ATP) and 5 to 10 µM in series [1] (setting [5]). This compound also showed a Ki at Kv11.1 (hERG) (setting [8]) of 15 to 25 µM.

With `Cn1c(C(O)c2cc(-c3ncnc4cc(N5CCOCC5)ccc34)c(F)cc2F)cccc1=O` (stereo not drawn) [Example 436, 6-{[2,4-Difluoro-5-(7-morpholin-4-yl-quinazolin-4-yl)-phenyl]hydroxy-methyl}-1-methyl-1H-pyridin-2-one], the IC50 was in the range of 3 to 7 nM on DNA-PK (biochemical DNA-PK assay) and 0.5 to 5 µM in series [1] (setting [2]). The Ki at Kv11.1 (hERG) (setting [4]) is above 25 µM.

As to `COc1cnc(C(O)c2ccc(OC)c(-c3ncnc4cc(N5CCOCC5)ccc34)c2)cn1` (stereo not drawn) [Example 61, [4-methoxy-3-(7-morpholin-4-yl-quinazolin-4-yl)phenyl]-(5-methoxypyrazin-2-yl)methanol], the IC50 is above 30 nM on DNA-PK (enzymatic, 5 μM ATP) and 10 to 30 µM in series [1] (setting [5]). In addition, on Kv11.1 (hERG) (setting [6]), the inhibition constant (Ki) was above 25 µM.

For `Cc1nccnc1C(O)c1cc(-c2ncnc3cc(N4CCOCC4)ccc23)ccc1Cl` (stereo not drawn) [Example 428, [2-Chloro-5-(7-morpholin-4-yl-quinazolin-4-yl)-phenyl]-(3-methyl-pyrazin-2-yl)-methanol], the IC50 against DNA-PK (biochemical DNA-PK assay) is 7 to 30 nM; in series [1] (setting [2]), below 0.5 µM. On Kv11.1 (hERG) (setting [3]), this compound yielded a Ki of 10 to 15 µM.

As for `CCn1nc(C(O)c2cc(-c3ncnc4cc(N5CCOCC5)ccc34)c(F)cc2Cl)ccc1=O` (stereo not drawn) [Example 93, 6-{[2-Chloro-4-fluoro-5-(7-morpholin-4-yl-quinazolin-4-y1)phenyl]-hydroxymethyl}-2-ethyl-2H-pyridazin-3-one], the IC50 was 3 to 7 nM against DNA-PK (enzymatic, 5 μM ATP) and below 0.5 µM in series [1] (setting [5]). On Kv11.1 (hERG) (setting [8]), the Ki fell in the range of 10 to 15 µM.

Values taken from patent US9732094B2, “Arylquinazolines” (Merck Patent GmbH, priority 2013, dated 2017).
